# Experimental data: patent US7087035B2 (priority 1999, dated 2006)
# Conditions: stretched and non-stretched groups; systems removed at 24 and 48 hours
# Description: In one group of 12 hairless guinea pigs the skin of one flank was stretched manually bi-directionally ( ? and ? ) before application of a foam double adhesive ring having a thickness of 0.8 mm ( 1/32 inch) with a 2 cm^2 hole in the middle which would later contain the drug. The bi-directional stretching was estimated to achieve a skin tension of between 0.1 and 1 M Pa. The adhesive ring served to keep the skin under the drug compartment in the stretched configuration. Next, a 2 cm^2 stainless steel microprotrusion array having trapezoidal microprotrusions with microprotrusion lengths of 430 μm and a microprotrusion density of 241 microprotrusions/cm^2 was applied to the skin beneath the drug compartment using an approximately 2 kg/cm^2 normal manual pressure. The microprotrusion array was held for a few seconds and then removed.
# A second group of 12 hairless guinea pigs were treated in the same way, except that the skin was not stretched. At 12, 24, and 48 hours after application four systems from each group were removed and residual drug was washed from the skin.
structure (smiles),measurement,value
NCCCC[C@H](N[C@@H](CCc1ccccc1)C(=O)O)C(=O)N1CCC[C@H]1C(=O)O [lisinopril],drug flux after 12 hours,no drug flux in either group
